*1 amine or outer side, *2 acyl side, *3 side chain or, on linkers, in order; H or OH if unused. Where a SMILES comes first, the peptide text is derived from it. Bridges are numbered along the chain shown (N, C = ends). [ ]: non-standard residue; d: D form. ξ: configuration not given here. Phe(3,4,5-F3) = N[C@@H](Cc1cc(F)c(F)c(F)c1)C(=O)O; Trp(7-Br) = N[C@@H](Cc1c[nH]c2c(Br)cccc12)C(=O)O; Phe(3,4-F2) = N[C@@H](Cc1ccc(F)c(F)c1)C(=O)O; Phe(4-F) = N[C@@H](Cc1ccc(F)cc1)C(=O)O; d(cisHyp) = O=C(O)[C@H]1C[C@@H](O)CN1; Hyp = O=C(O)[C@@H]1C[C@@H](O)CN1; NMeF = CN[C@@H](Cc1ccccc1)C(=O)O; X1 = O=C([C@H]1COCCN1[*:1])[*:2]; dNMeF = CN[C@H](Cc1ccccc1)C(=O)O; NMehSer = CN[C@@H](CCO)C(=O)O; NMeNle = CCCC[C@H](NC)C(=O)O; hSer = N[C@@H](CCO)C(=O)O; NMeA = CN[C@@H](C)C(=O)O; Dab = NCC[C@H](N)C(=O)O; Dap = NC[C@H](N)C(=O)O; ξC = NC(CS)C(=O)O; Sar = CNCC(=O)O

The target in one assay is T1, Human PD-L1/PD-1 (Homo sapiens, UniProt Q9NZQ7).
T1 construct: TVMV protease cleavage site (C); made in house; host or cells: HEK293T cells
T1 sequence (Q9NZQ7 with tags, fused parts or gaps): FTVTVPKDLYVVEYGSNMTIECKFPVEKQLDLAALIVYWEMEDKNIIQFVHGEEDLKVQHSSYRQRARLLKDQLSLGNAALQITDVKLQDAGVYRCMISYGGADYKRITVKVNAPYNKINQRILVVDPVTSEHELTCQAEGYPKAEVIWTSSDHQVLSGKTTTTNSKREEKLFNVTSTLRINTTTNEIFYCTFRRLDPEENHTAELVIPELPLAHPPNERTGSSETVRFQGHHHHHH
The assay can be described thus: HTRF Human PD-L1/PD-1 binding assay (PD-1-Ig/PD-L1-His). The settings on record: PD-L1-His 10 nM, PD-1-Ig 20 nM; class symbol; read-out: HTRF Human PD-L1/PD-1 Binding Assay IC50 Range. The procedure, abridged:
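HTRF read-out (665/620 nm ratio) after 30 min equilibration with Eu-cryptate anti-Ig mAb (1 nM) and APC anti-His mAb (20 nM). Peptides preincubated 15 min with PD-L1-His (10 nM), then PD-1-Ig (20 nM) added for 15 min.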
(In general: Time-resolved FRET reads energy transfer from a long-lived donor to a nearby acceptor.)
With `CCCC[C@H]1C(=O)N2C[C@H](O)C[C@@H]2C(=O)N[C@@H](CC(=O)O)C(=O)N[C@@H](C(C)C)C(=O)N(C)[C@H](Cc2ccccc2)C(=O)N[C@@H](CCCCN)C(=O)N2C[C@H](O)C[C@@H]2C(=O)N[C@@H](Cc2c[nH]c3ccccc23)C(=O)N[C@@H](Cc2ccc(O)cc2)C(=O)N[C@@H](CC(C)C)C(=O)N[C@H](C(=O)NCC(N)=O)CSCC(=O)N[C@@H](Cc2ccc(F)c(F)c2)C(=O)N(C)[C@@H](Cc2ccccc2)C(=O)N1C` [Example 9295] ({CH2CO}-[Phe(3,4-F2)][NMeF][NMeNle][d(cisHyp)]DV[dNMeF]K[d(cisHyp)]WYLCG-NH2; thioether N-13), the IC50 lay within 1 to 9.9 nM. Still for that read-out and setting: the same measure for `CCCC[C@H]1C(=O)N(C)[C@@H](CCCC)C(=O)N[C@@H](CCC(=O)O)C(=O)NC(C(=O)NCC(N)=O)CSCC(=O)N[C@@H](Cc2ccc(O)cc2)C(=O)N(C)[C@@H](C)C(=O)N[C@@H](CC(N)=O)C(=O)N2CCC[C@H]2C(=O)N[C@@H](Cc2c[nH]cn2)C(=O)N[C@@H](CC(N)=O)C(=O)N2CCC[C@H]2C(=O)N[C@@H](Cc2c[nH]c3ccccc23)C(=O)N[C@@H](CC(=O)O)C(=O)N[C@@H](Cc2c[nH]c3ccccc23)C(=O)N1C` (some centres unmarked) [Example 9174] ({CH2CO}-Y[NMeA]NPHNPWDW[NMeNle][NMeNle]E[ξC]G-NH2; thioether N-14): 100 to 990 nM. `CCCC[C@H]1C(=O)N2C[C@H](O)C[C@@H]2C(=O)N[C@@H](CC(=O)O)C(=O)N[C@@H](C(C)C)C(=O)N(C)[C@@H](Cc2ccccc2)C(=O)N[C@@H](CCC(=O)O)C(=O)N2CCOC[C@@H]2C(=O)N[C@@H](Cc2c[nH]c3ccccc23)C(=O)N[C@@H](Cc2ccc(O)cc2)C(=O)N[C@@H](CCO)C(=O)N[C@H](C(=O)NCC(N)=O)CSCC(=O)N[C@@H](Cc2cc(F)c(F)c(F)c2)C(=O)N(C)[C@@H](Cc2ccccc2)C(=O)N1C` [Example 10156] ({CH2CO}-[Phe(3,4,5-F3)][NMeF][NMeNle][d(cisHyp)]DV[NMeF]E[X1]WY[hSer]CG-NH2; thioether N-13): the IC50 was in the range of 1 to 9.9 nM.

For `CCCC[C@H]1C(=O)N(C)[C@@H](CCCC)C(=O)N[C@@H](CC(=O)O)C(=O)N[C@H](C(=O)NCC(N)=O)CSCC(=O)N[C@@H](Cc2ccc(O)cc2)C(=O)N2CCCCC2C(=O)N[C@@H](CC(=O)O)C(=O)N2CCC[C@H]2C(=O)N[C@@H](Cc2c[nH]cn2)C(=O)N[C@@H](CCCN)C(=O)N2C[C@H](O)C[C@H]2C(=O)N[C@@H](Cc2c[nH]c3ccccc23)C(=O)N[C@@H](CCCN)C(=O)N[C@@H](Cc2csc3ccccc23)C(=O)N1C` (some centres unmarked) [Example 1533], the IC50 was 1 to 9.9 nM. Same read-out and setting: as for `CCCC[C@H]1C(=O)N[C@@H](CC(N)=O)C(=O)N2CCC[C@H]2C(=O)N[C@@H](CO)C(=O)N[C@@H](CCO)C(=O)N2C[C@H](O)C[C@H]2C(=O)N[C@@H](Cc2c[nH]c3ccccc23)C(=O)N[C@@H](CCN)C(=O)N[C@@H](Cc2c[nH]c3ccccc23)C(=O)N(C)[C@@H](C)C(=O)N(C)CC(=O)N[C@@H](CCCNC(=N)N)C(=O)NC(C(=O)NCC(N)=O)CSCC(=O)N[C@@H](Cc2ccc(O)cc2)C(=O)N1C` (some centres unmarked) [Example 10206] ({CH2CO}-Y[NMeNle]NPS[hSer][Hyp]W[Dab]W[NMeA][Sar]R[ξC]G-NH2; thioether N-14), the figure is 1000 to 10000 nM; as for `CCCC[C@H]1C(=O)N(C)[C@@H](C)C(=O)N[C@@H](CCCNC(=N)N)C(=O)NC(C(=O)N[C@@H](CO)C(N)=O)CSCC(=O)N[C@@H](Cc2ccc(O)cc2)C(=O)N(C)[C@@H](C)C(=O)N[C@@H](CC(N)=O)C(=O)N2CCC[C@H]2C(=O)N[C@@H](CO)C(=O)N[C@H](CC(C)C)C(=O)N2CCC[C@H]2C(=O)N[C@@H](Cc2c[nH]c3ccccc23)C(=O)N[C@@H](CO)C(=O)N[C@@H](Cc2c[nH]c3ccccc23)C(=O)N1C` (stereo partly drawn) [Example 9121] ({CH2CO}-Y[NMeA]NPS[dL]PWSW[NMeNle][NMeA]R[ξC]S-NH2; thioether N-14), 10 to 99.9 nM; as for `CCCC[C@H]1C(=O)N2C[C@H](O)C[C@@H]2C(=O)N[C@@H](CC(=O)O)C(=O)N[C@@H](C(C)C)C(=O)N(C)[C@@H](Cc2ccccc2)C(=O)N[C@@H](CC(N)=O)C(=O)N2C[C@H](O)C[C@@H]2C(=O)N[C@@H](Cc2c[nH]c3ccccc23)C(=O)N[C@@H](Cc2ccc(O)cc2)C(=O)N[C@@H](CN)C(=O)N[C@H](C(=O)NCC(N)=O)CSCC(=O)N[C@@H](Cc2cc(F)c(F)c(F)c2)C(=O)N(C)[C@@H](Cc2ccccc2)C(=O)N1C` [Example 9365] ({CH2CO}-[Phe(3,4,5-F3)][NMeF][NMeNle][d(cisHyp)]DV[NMeF]N[d(cisHyp)]WY[Dap]CG-NH2; thioether N-13), 10 to 99.9 nM.

In the case of `CCCC[C@H]1C(=O)N(C)[C@@H](CCCC)C(=O)N[C@@H](CCC(=O)O)C(=O)NC(C(=O)NCC(N)=O)CSCC(=O)N[C@@H](Cc2ccc(O)cc2)C(=O)N(C)[C@@H](C)C(=O)N[C@@H](CC(N)=O)C(=O)N2CCC[C@H]2C(=O)N[C@@H](CC(N)=O)C(=O)N[C@@H](CC(C)C)C(=O)N2C[C@H](O)C[C@H]2C(=O)N[C@@H](Cc2c[nH]c3ccccc23)C(=O)N[C@@H](CCN)C(=O)N[C@@H](Cc2c[nH]c3ccccc23)C(=O)N1C` (some centres unmarked) [Example 9181] ({CH2CO}-Y[NMeA]NPNL[Hyp]W[Dab]W[NMeNle][NMeNle]E[ξC]G-NH2; thioether N-14), the IC50 was 1 to 9.9 nM. Still for that read-out and setting: as for `CCCC[C@H]1C(=O)N(C)[C@@H](CCCC)C(=O)N[C@@H](CCC(=O)O)C(=O)N[C@H](C(=O)NCC(N)=O)CSCC(=O)N[C@@H](Cc2ccc(O)cc2)C(=O)N(C)[C@@H](C)C(=O)N[C@@H](CC(N)=O)C(=O)N2CCC[C@H]2C(=O)N[C@@H](CO)C(=O)N[C@@H](CCC(=O)O)C(=O)N2C[C@H](O)C[C@H]2C(=O)N[C@@H](Cc2c[nH]c3ccccc23)C(=O)N[C@@H](CO)C(=O)N[C@@H](Cc2c[nH]c3ccccc23)C(=O)N1C` [Example 5205] ({CH2CO}-Y[NMeA]NPSE[Hyp]WSW[NMeNle][NMeNle]ECG-NH2; thioether N-14), the figure is 1 to 9.9 nM; as for `CCCC[C@H]1C(=O)N2CCC[C@@H]2C(=O)N[C@@H](CC(=O)O)C(=O)N[C@@H](C(C)C)C(=O)N(C)[C@@H](CCOC)C(=O)N[C@@H](CCC(N)=O)C(=O)N2CCC[C@@H]2C(=O)N[C@@H](Cc2c[nH]c3ccccc23)C(=O)N[C@@H](Cc2ccc(O)cc2)C(=O)N[C@@H](CC(C)C)C(=O)N[C@H](C(=O)NCC(N)=O)CSCC(=O)N[C@@H](Cc2ccc(F)cc2)C(=O)N(C)[C@@H](Cc2ccccc2)C(=O)N1C` [Example 9223] ({CH2CO}-[Phe(4-F)][NMeF][NMeNle][dP]DV[NMehSer](Me)Q[dP]WYLCG-NH2; thioether N-13), 100 to 990 nM.

Staying with this assay, now noted: PD-L1-His 10 nM, PD-1-Ig 20 nM; read-out: HTRF Human PD-L1/PD-1 Binding Assay IC50.
For `CCCC[C@H]1C(=O)N(C)[C@@H](CCCC)C(=O)N[C@@H](C)C(=O)N[C@H](C(=O)NCC(N)=O)CSCC(=O)N[C@@H](Cc2ccc(O)cc2)C(=O)N(C)[C@@H](C)C(=O)N[C@@H](CC(N)=O)C(=O)N2CCC[C@H]2C(=O)N[C@@H](Cc2cnc[nH]2)C(=O)N[C@@H](CCC(N)=O)C(=O)N2C[C@H](O)C[C@H]2C(=O)N[C@@H](Cc2c[nH]c3ccccc23)C(=O)N[C@@H](CO)C(=O)N[C@@H](Cc2c[nH]c3c(Br)cccc23)C(=O)N1C` [Example 1541] ({CH2CO}-Y[NMeA]NPHQ[Hyp]WS[Trp(7-Br)][NMeNle][NMeNle]ACG-NH2; thioether N-14), the IC50 was determined as 451 nM.

(Values after patent US10538555B2, “Macrocyclic inhibitors of the PD-1/PD-L1 and CD80(B7-1)/PD-L1 protein/protein interactions” (BRISTOL-MYERS SQUIBB COMPANY, priority 2014, dated 2020).)
